Laboratory results as given in patent publication US6486199B1, “Spiro and dispiro 1,2,4-trioxolane antimalarials” (Medicines for Malaria Venture MMV International Centre …, priority 2001, dated 2002).
In brackets after ≈: the same amount, converted by molar mass. Where two headings read alike, the source gives them in different places.

Key:
[1] = system: chloroquine-resistant K1 strain of P. falciparum; test: in vitro screen against chloroquine-resistant K1 strain of P. falciparum; format: cell-based; conditions: for IC50: Plasmodium falciparum; for in vitro potency: strains not distinguished
[2] = system: chloroquine-sensitive NF54 strain of P. falciparum; test: in vitro screen against chloroquine-sensitive NF54 strain of P. falciparum; format: cell-based; conditions: for IC50: Plasmodium falciparum
[3] = differential scanning calorimetry (DSC), thermal stability; format: physicochemical; conditions: thermal decomposition
[4] = system: ANKA strain of P. Berghei; test: single dose STI in vivo screen in infected Moro SPF mice; conditions: for antimalarial activity, overall assessment: overall judgement of in vitro and in vivo data of Table 2; for Activity (%) po / Activity (%) sc: percent reduction in parasitemia day 3 post-infection
Description: In the single dose STI in vivo screen, Moro SPF mice infected with the ANKA strain of P. Berghei (groups of three mice) were treated on day one post-infection with trioxolanes dissolved or suspended in 3% ethanol and 7% Tween 80. […] Antimalarial activity was measured by percent redution in parasitemia on day three post-infection and survival times compared to an untreated control group. Survival to day 30 post-infection is considered to be a cure.

[5] = system: P. berghei; test: 1-day Peters test against P. berghei in vivo; conditions: 1 day, po
[6] = NF54, read-out: IC50 (ng/ml) NF54
[7] = single 100 mg/kg po, survival to day 30 = cure
[8] = single 100 mg/kg sc, survival to day 30 = cure

C1CC2(CCN1)OOC1(O2)C2CC3CC(C2)CC1C3.Cl (stereo not shown) [OZ80, Adamantane-2-spiro-3′-1′,2′,4′-trioxa-8′-azaspiro[4.5]decane hydrochloride]
IC50 ([1]; K1, read-out: IC50 (ng/ml) K1): < 0.16 ng/mL
in vitro potency ([1]; in vitro): quite potent
IC50 [2, 6]: 0.34 ng/mL
Tm dec. (° C.) [3]: 129.8 °C
in vivo activity ([4]; 10 mg/kg po/sc data of Table 2): modest

O=C(O)[C@H]1CC[C@]2(CC1)OOC1(O2)C2CC3CC(C2)CC1C3 (stereo partly drawn) [OZ71, cis-Adamantane-2-spiro-3′-8′-carboxy-1′,2′,4′-trioxaspiro[4.5]decane]
IC50 (ng/ml) K1 ([1]; in vitro, K1 strain): 4.5 ng/mL (≈ 0.0146 µM)
IC50 (ng/ml) NF54 ([2]; in vitro, NF54 strain): 3.7 ng/mL (≈ 0.012 µM)
Tm dec. (° C.) [3]: 165.9 °C

c1ccc2c(c1)CCC1(C2)OOC2(O1)C1CC3CC(C1)CC2C3 (stereo not shown) [OZ85, Adamantane-2-spiro-3′-1′,2′,4′-trioxolane-5′-spiro-2″-3″,4″-dihydro-1″H-naphthalene]
in vitro potency ([1]; in vitro): very active
IC50 (ng/ml) NF54 ([2]; in vitro, NF54 strain): /2.0 ng/ml
Tm dec. (° C.) [3]: 152.8 °C

C1CCC2(CC1)OOC1(CCCCC1)O2 [OZ01, 7,14,15-Trioxadispiro[5.1.5.2]pentadecane]
IC50 ([1]; K1, read-out: IC50 (ng/ml) K1): > 100 ng/mL
IC50 [2, 6]: > 100 ng/mL
antimalarial activity, overall assessment [4]: less active
Activity (%) po ([4]; single 100 mg/kg po): 0/0%
Activity (%) sc ([4]; single 100 mg/kg sc): 0/0%
Survival (days) po [4, 7]: 5.3/5.3 days
Survival (days) sc [4, 8]: 5.3/5.3 days

O=S1(=O)CCC2(CC1)OOC1(O2)C2CC3CC(C2)CC1C3 (stereo not shown) [OZ50, Adamantane-2-spiro-3′-1′,2′,4′-trioxa-8′-thiaspiro[4.5]decane 8′,8′-dioxide]
IC50 ([1]; in vitro, K1 strain, read-out: IC50 (ng/ml) K1): 1.1 ng/mL (≈ 0.0035 µM)
IC50 ([2]; in vitro, NF54 strain, read-out: IC50 (ng/ml) NF54): 1.2 ng/mL (≈ 0.00382 µM)
Tm dec. (° C.) [3]: 147.1 °C

O=C(CO)N1CCC2(CC1)OOC1(O2)C2CC3CC(C2)CC1C3 (stereo not shown) [OZ83, Adamantane-2-spiro-3′-8′-hydroxyacetyl-1′,2′,4′-trioxa-8′-azaspiro[4.5]decane]
IC50 (ng/ml) NF54 ([2]; in vitro, NF54 strain): /1.0 ng/ml
Tm dec. (° C.) [3]: 163.6 °C
antimalarial activity, overall assessment [4]: very active

CCO[C@H]1O[C@@H]2O[C@@]3(C)CC[C@H]4[C@H](C)CC[C@@H]([C@H]1C)[C@@]24OO3 [Arteether, arteether, reference compound]
P. berghei (1 day) ED50 po [5]: 2.4 mg/kg
P. berghei (1 day) ED90 po [5]: 6.8 mg/kg
IC50 (ng/ml) NF54 ([2]; in vitro, NF54 strain): 0.54 ng/mL (≈ 0.00173 µM)
Activity (%) po ([4]; single 10 mg/kg po): 98%
Activity (%) sc ([4]; single 10 mg/kg sc): 100%
Activity (%) po ([4]; single 100 mg/kg po): 99.98%
Activity (%) sc ([4]; single 100 mg/kg sc): 100%
Survival (days) po ([4]; single 10 mg/kg po): 8 days
Survival (days) sc ([4]; single 10 mg/kg sc): 9.7 days
Survival (days) po [4, 7]: 12 days
Survival (days) sc [4, 8]: 26.3 days

FC1CCCCC12OOC1(CCCCC1)O2 (stereo not shown) [OZ06, 1-Fluoro-7,14,15-trioxadispiro[5.1.5.2]pentadecane]
IC50 ([1]; K1, read-out: IC50 (ng/ml) K1): 18 ng/mL (≈ 0.0782 µM)
IC50 [2, 6]: 22 ng/mL (≈ 0.0955 µM)
antimalarial activity, overall assessment [4]: less active
Survival (days) po [4, 7]: 1.0/1.0 days
Survival (days) sc [4, 8]: 1.0/1.0 days

CC1(O)CCC2(CC1)OOC1(O2)C2CC3CC(C2)CC1C3 (stereo not shown) [OZ90, Adamantane-2-spiro-3′-8′-hydroxy-8′-methyl-1′,2′,4′-trioxaspiro[4.5]decane]
IC50 (ng/ml) NF54 ([2]; in vitro, NF54 strain): /1.1 ng/ml
Tm dec. (° C.) [3]: 153.2 °C
antimalarial activity, overall assessment [4]: quite active

O=C(O)[C@H]1CC[C@@]2(CC1)OOC1(O2)C2CC3CC(C2)CC1C3 (stereo partly drawn) [OZ72, trans-Adamantane-2-spiro-3′-8′-carboxy-1′,2′,4′-trioxaspiro[4.5]decane]
IC50 (ng/ml) K1 ([1]; in vitro, K1 strain): 15 ng/mL (≈ 0.0486 µM)
IC50 (ng/ml) NF54 ([2]; in vitro, NF54 strain): 13 ng/mL (≈ 0.0422 µM)
Tm dec. (° C.) [3]: 161.9 °C
